{"source": "ChEMBL document CHEMBL1125004", "about": "“Chemistry and pharmacology of the non-benzodiazepine anxiolytic enciprazine and related compounds” (1990)", "key": {"Mus musculus [1]": {"system": "Mus musculus", "assay": "Antiaggressive anxiolytic activity in the electroshock-induced fighting test in mice (po); Range (11.7-20.3)", "assay_type": "functional"}, "Mus musculus [2]": {"species": "Mus musculus", "assay": "Effect on hexobarbital induced sleep was determined in hexobarbital potentiation test; Range (181.4-219.9)", "assay_type": "functional"}, "Mus musculus [3]": {"system": "Mus musculus", "assay": "Antiaggressive anxiolytic activity in the electroshock-induced fighting test in mice (po); Range (1.46-5.72)", "assay_type": "functional"}, "Mus musculus [4]": {"species": "Mus musculus", "assay": "Ataxic activity in mice by rotarod test; Range (87.7-114.6)", "assay_type": "functional"}, "Rattus norvegicus": {"system": "Rattus norvegicus", "assay": "Antiaggressive anxiolytic activity in the hexagonal maze test in rat after po administration of 2.6 mg/kg", "assay_type": "functional"}, "[5]": {"assay": "Ratio of ED50 (hexobarbital) to that of ED50 (fighting)", "assay_type": "functional"}, "[6]": {"assay": "Ratio of ED50 (rotarod) to that of ED50 (fighting)", "assay_type": "functional"}, "Mus musculus [7]": {"system": "Mus musculus", "assay": "Antiaggressive anxiolytic activity in the electroshock-induced fighting test in mice (po); Range (9.4-17.88)", "assay_type": "functional"}, "Mus musculus [8]": {"system": "Mus musculus", "assay": "Antiaggressive anxiolytic activity in the electroshock-induced fighting test in mice (po); Range (8.3-16.1)", "assay_type": "functional"}, "Mus musculus [9]": {"system": "Mus musculus", "assay": "Antiaggressive anxiolytic activity in the electroshock-induced fighting test in mice (po); Range (1 7.3-25.4)", "assay_type": "functional"}, "Mus musculus [10]": {"species": "Mus musculus", "assay": "Effect on hexobarbital induced sleep was determined in hexobarbital potentiation test; Range (1 19.4-168.3)", "assay_type": "functional"}, "Mus musculus [11]": {"system": "Mus musculus", "assay": "Antiaggressive anxiolytic activity in the electroshock-induced fighting test in mice (po); Range (0.69-2.88)", "assay_type": "functional"}, "Mus musculus [12]": {"species": "Mus musculus", "assay": "Ataxic activity in mice by rotarod test; Range (231.4-298.5)", "assay_type": "functional"}, "Mus musculus [13]": {"system": "Mus musculus", "assay": "Antiaggressive anxiolytic activity in the electroshock-induced fighting test in mice (po); Range (3.1-7.7)", "assay_type": "functional"}, "Monkey [14]": {"system": "Monkey", "assay": "Tested for ability to maintain self-administration after administration of 0.3 mg/kg in monkey 3038 (53.9+/-9.3)", "assay_type": "functional, Cercopithecidae"}, "Monkey [15]": {"system": "Monkey", "assay": "Tested for ability to maintain self-administration after administration of 0.3 mg/kg in monkey 9079 (56.5+/-18.0)", "assay_type": "functional, Cercopithecidae"}, "Monkey [16]": {"system": "Monkey", "assay": "Tested for ability to maintain self-administration after administration of 0.3 mg/kg in monkey 2037 (60.1+/-5.3)", "assay_type": "functional, Cercopithecidae"}, "Monkey [17]": {"system": "Monkey", "assay": "Tested for ability to maintain self-administration after administration of 0.3 mg/kg in monkey 3017 (76.6+/-15.9)", "assay_type": "functional, Cercopithecidae"}, "Monkey [18]": {"system": "Monkey", "assay": "Tested for ability to maintain self-administration after administration of 0.1 mg/kg in monkey 9083 (59.8+/-15.8)", "assay_type": "functional, Cercopithecidae"}, "Monkey [19]": {"system": "Monkey", "assay": "Tested for ability to maintain self-administration after administration of 0.3 mg/kg in monkey 2036 (44.9 +/-5.6)", "assay_type": "functional, Cercopithecidae"}, "Mus musculus [20]": {"system": "Mus musculus", "assay": "Effect on hexobarbital induced sleep was determined in hexobarbital potentiation test (po); Range (76.3-106.2)", "assay_type": "functional"}, "Mus musculus [21]": {"system": "Mus musculus", "assay": "Antiaggressive anxiolytic activity in the electroshock-induced fighting test in mice (po); Range (7.3-11.9)", "assay_type": "functional"}, "Mus musculus [22]": {"species": "Mus musculus", "assay": "Ataxic activity in mice by rotarod test; Range (355.1-460.2)", "assay_type": "functional"}, "Mus musculus [23]": {"system": "Mus musculus", "assay": "Antiaggressive anxiolytic activity in the electroshock-induced fighting test in mice (po); Range (1.19-5.72)", "assay_type": "functional"}, "Mus musculus [24]": {"species": "Mus musculus", "assay": "Effect on hexobarbital induced sleep was determined in hexobarbital potentiation test; Range (8.3-15.4)", "assay_type": "functional"}, "Mus musculus [25]": {"system": "Mus musculus", "assay": "Antiaggressive anxiolytic activity in the electroshock-induced fighting test in mice (po); Range (6.62-10.07)", "assay_type": "functional"}, "Mus musculus [26]": {"species": "Mus musculus", "assay": "Ataxic activity in mice by rotarod test; Range (1.1-5.3)", "assay_type": "functional"}, "Mus musculus [27]": {"system": "Mus musculus", "assay": "Antiaggressive anxiolytic activity in the electroshock-induced fighting test in mice (po); Range (13.27-18.96)", "assay_type": "functional"}}, "data": [{"molecule": "COc1cc(OCC(O)CN2CCN(c3ccccc3Cl)CC2)cc(OC)c1OC.Cl", "note": "(centres undefined)", "values": [{"measurement": "ED50", "setting": "Mus musculus [1]", "value": 16, "unit": "mg/kg"}]}, {"molecule": "COc1cc(OCC(O)CN2CCN(c3ccccc3NC(C)=O)CC2)cc(OC)c1OC", "note": "(centres undefined)", "values": [{"measurement": "ED50", "setting": "Mus musculus [2]", "value": 200, "unit": "mg/kg"}, {"measurement": "ED50", "setting": "Mus musculus [3]", "value": 3.3, "unit": "mg/kg"}, {"measurement": "ED50", "setting": "Mus musculus [4]", "value": 100, "unit": "mg/kg"}, {"measurement": "Prolongation", "setting": "Rattus norvegicus", "value": 50, "unit": "%"}, {"measurement": "Therapeutic index", "setting": "[5]", "value": 61}, {"measurement": "Therapeutic index", "setting": "[6]", "value": 30}]}, {"molecule": "COc1ccccc1N1CCN(CC(COc2cc(OC)c(OC)c(OC)c2)OC(=O)c2cccnc2)CC1.Cl", "note": "(centres undefined)", "values": [{"measurement": "ED50", "setting": "Mus musculus [7]", "value": 14, "unit": "mg/kg"}]}, {"molecule": "COc1cc(OCC(O)CN2CCN(c3cccc(C)c3)CC2)cc(OC)c1OC.Cl", "note": "(centres undefined)", "values": [{"measurement": "ED50", "setting": "Mus musculus [8]", "value": 12, "unit": "mg/kg"}]}, {"molecule": "COc1cc(OCC(O)CN2CCN(c3ccccc3C(F)(F)F)CC2)cc(OC)c1OC.Cl", "note": "(centres undefined)", "values": [{"measurement": "ED50", "setting": "Mus musculus [9]", "value": 21, "unit": "mg/kg"}]}, {"molecule": "COc1cc(OCC(O)CN2CCN(c3ccccc3N)CC2)cc(OC)c1OC.Cl", "note": "(centres undefined)", "values": [{"measurement": "ED50", "setting": "Mus musculus [10]", "value": 145, "unit": "mg/kg"}, {"measurement": "ED50", "setting": "Mus musculus [11]", "value": 1.4, "unit": "mg/kg"}, {"measurement": "ED50", "setting": "Mus musculus [12]", "value": 260, "unit": "mg/kg"}, {"measurement": "Therapeutic index", "setting": "[5]", "value": 103}, {"measurement": "Therapeutic index", "setting": "[6]", "value": 185}]}, {"molecule": "COc1cccc(N2CCN(CC(O)COc3cc(OC)c(OC)c(OC)c3)CC2)c1.Cl", "note": "(centres undefined)", "values": [{"measurement": "ED50", "setting": "Mus musculus [13]", "value": 5.5, "unit": "mg/kg"}]}, {"molecule": "CCCC(C)C1(CC)C(=O)NC(=O)NC1=O", "note": "(centres undefined) [PENTOBARBITAL]", "values": [{"measurement": "Effect", "setting": "Monkey [14]", "value": 53.9}, {"measurement": "Effect", "setting": "Monkey [15]", "value": 56.5}, {"measurement": "Effect", "setting": "Monkey [16]", "value": 60.1}, {"measurement": "Effect", "setting": "Monkey [17]", "value": 76.6}, {"measurement": "Effect", "setting": "Monkey [18]", "value": 59.8}, {"measurement": "Effect", "setting": "Monkey [19]", "value": 44.9}]}, {"molecule": "COc1cc(OCC(O)CN2CCN(c3cccc(C(F)(F)F)c3)CC2)cc(OC)c1OC.Cl", "note": "(centres undefined)", "values": [{"measurement": "ED50", "setting": "Mus musculus [20]", "value": 90, "unit": "mg/kg"}, {"measurement": "ED50", "setting": "Mus musculus [21]", "value": 9, "unit": "mg/kg"}, {"measurement": "ED50", "setting": "Mus musculus [22]", "value": 400, "unit": "mg/kg"}, {"measurement": "Therapeutic index", "setting": "[5]", "value": 10}, {"measurement": "Therapeutic index", "setting": "[6]", "value": 44}]}, {"molecule": "COc1cc(OCC(O)CN2CCN(c3ccccc3OC(C)=O)CC2)cc(OC)c1OC.Cl", "note": "(centres undefined)", "values": [{"measurement": "ED50", "setting": "Mus musculus [23]", "value": 3.3, "unit": "mg/kg"}]}, {"molecule": "O=C1CN=C(c2ccccc2)c2cc(Cl)ccc2N1CC1CC1", "note": "[PRAZEPAM]", "values": [{"measurement": "ED50", "setting": "Mus musculus [24]", "value": 11.5, "unit": "mg/kg"}, {"measurement": "ED50", "setting": "Mus musculus [25]", "value": 8, "unit": "mg/kg"}, {"measurement": "ED50", "setting": "Mus musculus [26]", "value": 3.1, "unit": "mg/kg"}, {"measurement": "Therapeutic index", "setting": "[5]", "value": 1.4}, {"measurement": "Therapeutic index", "setting": "[6]", "value": 0.4}]}, {"molecule": "COc1ccccc1N1CCN(CC(COc2cc(OC)c(OC)c(OC)c2)OC(=O)c2cc(OC)c(OC)c(OC)c2)CC1.Cl", "note": "(centres undefined)", "values": [{"measurement": "ED50", "setting": "Mus musculus [27]", "value": 16, "unit": "mg/kg"}]}]}
